The target of experiment [1] is Glutamate receptor ionotropic, NMDA 1 (Rattus norvegicus, UniProt P35439).
Experiment [2] deals with Glutamate receptor 3 (Rattus norvegicus, UniProt P19492).
Chain of Glutamate receptor 3 (P19492 whole entry): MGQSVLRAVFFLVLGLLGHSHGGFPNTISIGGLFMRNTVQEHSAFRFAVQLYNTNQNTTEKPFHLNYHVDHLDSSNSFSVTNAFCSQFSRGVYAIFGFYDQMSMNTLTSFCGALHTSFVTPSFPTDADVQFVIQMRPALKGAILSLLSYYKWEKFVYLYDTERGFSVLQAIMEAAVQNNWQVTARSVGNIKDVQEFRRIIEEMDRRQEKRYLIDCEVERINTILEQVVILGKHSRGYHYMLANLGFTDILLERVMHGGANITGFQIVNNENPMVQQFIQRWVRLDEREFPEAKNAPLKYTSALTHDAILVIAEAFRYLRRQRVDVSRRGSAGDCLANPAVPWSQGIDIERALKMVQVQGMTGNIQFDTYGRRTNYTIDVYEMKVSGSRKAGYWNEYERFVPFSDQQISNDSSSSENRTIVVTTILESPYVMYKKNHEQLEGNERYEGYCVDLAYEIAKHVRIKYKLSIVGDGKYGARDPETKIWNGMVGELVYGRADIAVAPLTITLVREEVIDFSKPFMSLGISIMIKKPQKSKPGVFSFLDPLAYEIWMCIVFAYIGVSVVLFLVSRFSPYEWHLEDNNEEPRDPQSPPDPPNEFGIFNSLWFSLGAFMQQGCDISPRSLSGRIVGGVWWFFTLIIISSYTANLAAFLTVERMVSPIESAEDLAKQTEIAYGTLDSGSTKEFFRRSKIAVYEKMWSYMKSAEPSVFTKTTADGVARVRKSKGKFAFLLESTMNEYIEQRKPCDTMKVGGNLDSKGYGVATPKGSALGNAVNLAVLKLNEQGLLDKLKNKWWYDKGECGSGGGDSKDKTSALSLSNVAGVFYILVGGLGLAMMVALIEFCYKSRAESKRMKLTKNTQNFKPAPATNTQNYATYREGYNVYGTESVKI

Consider `CNC(C(=O)O)c1c(C)o[nH]c1=O` (configuration not stated), for which the Ki (usually a dissociation constant, usually derived from enzyme kinetics or from competition with a known ligand) in experiment [1] was more than 10 µM.

Turning to `O=C(O)C1NCCc2o[nH]c(=O)c21` (configuration not stated) [CAS_129091], the inhibitory constant (Ki) in experiment [2] and in experiment [1] was more than 10 µM in each case.

The molecule `Cc1o[nH]c(=O)c1C(C(=O)O)N(C)C` (configuration not stated) [N,N-dimethyl-AMAA] gave an inhibition constant Ki in experiment [1] of more than 10 µM.

In turn, `Cc1o[nH]c(=O)c1CC(C(=O)O)N(C)C` (configuration not stated) [N,N-dimethyl-AMPA] came in with a Ki in experiment [2] of more than 10 µM.

In experiment [2], `CNC(Cc1c(C)o[nH]c1=O)C(=O)O` (configuration not stated) [N-methyl-AMPA] displayed a Ki of more than 10 µM.

`O=C(O)c1cccnc1C(=O)O` [pyridine-2,3-dicarboxylic acid] displayed a Ki in experiment [1] of more than 10 µM.
